Results on one substance are retold here after patent US7833985B2, “Angiotensin-converting enzyme inhibitory peptides” (Suntory Holdings Limited, priority 2003, dated 2010).

For the assay, the target named is T1, ACE from rabbit lung (Oryctolagus cuniculus, UniProt P12822).
T1 construct: ACE from rabbit lung (Sigma); purchased Sigma; host or cells: rabbit lung
T1 sequence (P12822 34-1310): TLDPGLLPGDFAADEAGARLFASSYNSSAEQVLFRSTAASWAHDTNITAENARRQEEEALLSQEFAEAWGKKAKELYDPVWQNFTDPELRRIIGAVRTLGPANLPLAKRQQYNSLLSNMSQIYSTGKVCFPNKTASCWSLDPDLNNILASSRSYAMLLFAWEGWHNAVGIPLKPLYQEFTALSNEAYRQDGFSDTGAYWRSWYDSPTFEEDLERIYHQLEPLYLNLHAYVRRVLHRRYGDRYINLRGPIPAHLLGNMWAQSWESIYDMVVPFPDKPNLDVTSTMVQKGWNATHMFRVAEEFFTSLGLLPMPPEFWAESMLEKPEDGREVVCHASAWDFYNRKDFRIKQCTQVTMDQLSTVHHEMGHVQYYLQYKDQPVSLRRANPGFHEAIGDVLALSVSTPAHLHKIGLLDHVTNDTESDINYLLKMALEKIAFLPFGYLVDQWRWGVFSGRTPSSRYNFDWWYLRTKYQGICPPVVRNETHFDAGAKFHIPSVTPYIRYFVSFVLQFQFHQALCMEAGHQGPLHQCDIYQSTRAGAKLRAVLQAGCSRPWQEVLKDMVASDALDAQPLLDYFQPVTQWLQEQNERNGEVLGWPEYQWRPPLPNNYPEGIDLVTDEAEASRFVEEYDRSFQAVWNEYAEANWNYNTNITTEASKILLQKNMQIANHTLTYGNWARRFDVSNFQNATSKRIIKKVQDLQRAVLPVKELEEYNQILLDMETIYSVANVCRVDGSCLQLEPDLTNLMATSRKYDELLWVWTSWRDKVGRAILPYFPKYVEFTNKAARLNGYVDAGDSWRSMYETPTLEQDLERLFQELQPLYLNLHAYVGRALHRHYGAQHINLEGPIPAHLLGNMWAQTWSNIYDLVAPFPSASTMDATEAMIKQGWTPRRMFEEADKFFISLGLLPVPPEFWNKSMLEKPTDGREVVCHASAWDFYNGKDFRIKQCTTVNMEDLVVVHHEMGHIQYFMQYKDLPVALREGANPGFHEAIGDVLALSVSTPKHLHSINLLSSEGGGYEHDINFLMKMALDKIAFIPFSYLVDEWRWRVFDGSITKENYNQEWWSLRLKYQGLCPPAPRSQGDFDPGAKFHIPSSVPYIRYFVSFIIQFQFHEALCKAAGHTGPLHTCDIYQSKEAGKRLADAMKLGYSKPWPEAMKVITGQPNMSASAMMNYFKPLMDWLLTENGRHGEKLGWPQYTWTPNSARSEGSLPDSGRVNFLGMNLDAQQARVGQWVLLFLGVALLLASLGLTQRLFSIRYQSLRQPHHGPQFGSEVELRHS
Briefly: ACE inhibitory activity (IC50), fluorometric Bz-Gly-His-Leu hydrolysis. It counts as biochemical. Particulars: peptide purified from thermolysin digestion product of sesame protein; 5 μl portion of each fraction. How it is done:
In the present invention, the ACE inhibitory activity (IC50) was measured in accordance with the following method.
5 μl of a sample containing the peptide of the invention was pipetted into a 96-well microplate. After adding 25 μl of the buffer and 10 μl of the enzyme, the mixture was thoroughly stirred and incubated at 37° C. for 5 minutes. After adding 10 μl of the substrate, the mixture was reacted at 37° C. for 30 minutes. Then the reaction was ceased by adding 40 μl of 0.1 N NaOH. […] Then the amount of His-Leu formed by the hydrolysis by ACE was determined by exciting (at 355 nm) the fluorescent substance formed by the reaction between the amino group in the histidine residue and o-phthalaldehyde and measuring the fluorescence wavelength at 460 nm. Then the percentage inhibition by the peptide of the invention was determined in accordance with the following equation and the ACE inhibitory activity (IC50) was calculated. Percentage inhibition={1−(A−a)/(B−b)}×100 • A: Measurement of fluorescence when the sample was added. • a: Measurement of fluorescence when the sample was added and the buffer was added as a substitute for the enzyme. • B: Measurement of fluorescence when distilled water was added as a substitute for the sample. • b: Measurement of fluorescence when distilled water was added as a substitute for the sample and the buffer was added as a substitute for the enzyme.

As to Ile-Val-Tyr, the “ACE inhibitory activity of the C30 HPLC fractions identified as the peptide” value is recorded as “strong ACE inhibitory activities”.
